From US10167326B2, “Alpha-fetoprotein “ring and tail” peptides” (ALBANY MEDICAL COLLEGE, priority 2010, dated 2019)
Non-standard residues stand in square brackets, D forms with d. Residues, ends and D or L forms follow the SMILES beside them. Groups on a side chain read outwards from the residue. No end group written: not given here. Hyp = O=C(O)[C@@H]1C[C@@H](O)CN1

Columns and labels:
[1] = tested on: E2-stimulated immature mouse uterine growth; test: immature mouse uterine growth assay (inhibition of E2-stimulated uterine growth); assay type: in vivo; details: for Inhibition ± S.E, % Mouse uterine growth Intraperitoneal: 1 μg/mouse intraperitoneally, E2-stimulated, mean±S.E. (n=5), * p<0.05 vs E2 alone; for inhibition of E2-stimulated uterine growth, dose response profile: over a number of doses (FIG. 6)
Method: Four cyclic peptides of decreasing ring size (Table 1) were synthesized and were assessed for antiestrogenic activity using the immature mouse uterine assay. Negative control mice received saline alone. Positive control mice received E2 alone. AFPep was used as a positive control peptide and cyclic Scr was used as a peptide control. Mice were injected intraperitoneally (i.p.) with each of these peptides at a dose of 1 μg/mouse. One hour later mice received 0.5 ug 17β-estradiol (E2) i.p. Twenty-two hours later uteri were dissected, weighed, and normalized to body weight. The results are reported as mean±S.E (n=5) for four independent experiments.
(§1) A ‘tail’ was attached to a nine-amino acid ring and included 1 or 2 amino acids defined as hydrophilic or hydrophobic based on the nature of their side-chains. Tails comprising the following amino acid(s): serine (S), tyrosine (Y), […], glutamic acid (E), phenylalanine-serine (FS) and tyrosine-isoleucine (YI) represent hydrophilic tails and tails comprising the following amino acid(s), phenylalanine (F), isoleucine (I) and phenylalanine-isoleucine (FI) are hydrophobic tails. All peptides were administered at a dose of 1 μg/mouse intraperitoneally or 10 μg/mouse by oral gavage. Values are presented as mean±S.E. (n=5). In culture, T47D cells were treated with each peptide at a concentration of 1 μM. Values are presented as mean±S.E (n=6). […] Wilcoxon Rank Sum Test.
(§2) All peptides were administered at a dose of 1 μg/mouse intraperitoneally or 10 μg/mouse by oral gavage. Values are presented as mean±S.E (n=5). In culture, T47D cells were treated with each peptide at a concentration of 1 μM. Values are presented as mean±S.E (n=6). […] Wilcoxon Rank Sum Test.
To evaluate peptide-induced inhibition by the peptide of the present invention of estrogen-stimulated proliferation of normal tissue, the immature mouse uterine growth assay was utilized. Briefly, 13-15 day-old Swiss/Webster female mice, 6-8 g in body weight, were distributed into treatment groups of 5 mice per group so that each group contained animals of the same range of body weight. The peptide of the invention was injected i.p., s.c., or p.o. into the mice. One hour later, estradiol (E2) or vehicle control for E2 was injected i.p. Twenty-two hours after the second injection, uteri were harvested, trimmed free of mesenteries, and immediately weighed. The uterine weights were normalized to mouse body weights to compensate for differences in body weight among litters of the same age. Experiments employed a minimum of five mice per group and the mean normalized uterine weight±SE for each group was calculated. Percent growth inhibition in a test group was calculated from normalized uterine wet weights as described below.
The ability to inhibit E2-stimulated growth of normal mouse uterus was used as a screening assay for biological activity of AFPep analogs. In general, inhibitory activity ≥20% is considered to be biologically significant. Each analog's inhibitory effect on E2-stimulated growth was compared to AFPep (a positive control) and to PGVGQ (SEQ ID NO: 51)(a negative control). PGVGQ (SEQ ID NO: 51 amino acids 478-482 of AFP) is a portion of the primary structure of AFP near to the anti-cancer active site of AFP and is comprised of amino acids (P, V, and G) that are important components of AFPep.

[2] = tested on: MCF-7 human breast cancer xenograft; test: E2-supplemented MCF-7 human breast cancer xenograft assay in SCID mice; assay type: in vivo, mouse; details: E2 pellets, 10 μg s.c., 10 μg i.p. or 100 μg p.o. once daily day 1 to day 20 (FIG. 8)
From the text: To determine the effectiveness of cyclo[EKTOVNOGN] (SEQ ID NO: 33)FI as a potential cancer therapeutic agent in a clinically relevant model, we assessed the effect of cyclo[EKTOVNOGN] (SEQ ID NO: 33)FI on E2-supplemented MCF-7 human breast cancer xenograft growth using different routes of administration. Briefly, a piece of MCF-7 human breast cancer measuring approximately 2 mm in average diameter was implanted under the kidney capsule of SCID mice. Mice were supplemented with E2 pellets implanted subcutaneously, at the time of tumor implantation, for a steady state of E2 at 10^−9M. Mice were treated with 10 μg subcutaneously (s.c.), 10 μg intraperitoneally (i.p.) or 100 μg orally (p.o.) cyclo [EKTOVNOGN] (SEQ ID NO: 33) FI was administered once daily from day 1 to day 20 of the experiment. Tumor size was measured as described in materials and methods. Data is presented as mean±S.E (n=5). After 20 days of treatment, the percentage change in tumor volume for each cyclo [EKTOVNOGN] […] One-way ANOVA followed by Tukey's multiple comparison test. *p<0.01 vs. E2.
The peptides of the invention were evaluated for their ability to inhibit tumor growth in a human tumor xenograft assay. Briefly, MCF-7 human breast cancer cells were obtained from ATCC® (Rockville, Md.) and were grown in DMEM supplemented with 5% FCS, 1% non-essential amino acids, 10 ng/ml insulin, 2 mM L-glutamine, 100 units/ml penicillin, and 100 μg/ml streptomycin. MCF-7 cells from culture were solidified into a fibrin clot. The tumor-containing clots were cut into pieces about 1.5 mm in diameter and implanted under the kidney capsule of severe combined immunodeficient (ICR-SCID) mice (Taconic Farms, Germantown, N.Y.) as described in Bennett et al. (Clin. Cancer Res. 1998; 4:2877-84).
Estrogen supplementation of mice was required for the growth of MCF-7 tumors. […] Tumor size was evaluated during survival laparotomy using a dissecting microscope at the time of tumor implantation and at days 15 and 30 after tumor implantation. […]

[3] = tested on: T47D human breast cancer cells; test: T47D cell proliferation assay in the presence of E2; assay type: cell-based; details: different concentrations in vitro (FIG. 7)
[4] = tested on: T47D human breast cancer cells; test: as above; assay type: cell-based; details: peptide 1 μM; E2-stimulated; mean±S.E (n=6); * p<0.05 vs E2 alone
Method: Anticancer activity of the cyclic peptides was also evaluated using the T47D cell proliferation assay. T47D cells were cultured on collagen-IV coated 24-well plates and treated with each of above peptides in the presence of E2. Final peptide concentrations of each peptide were 10^−6 M and final E2 concentration was 1 nM. Values are reported as mean±SEM (n=6) of four independent experiments. […] One-way ANOVA followed by Tukey's multiple comparison test. p≤0.05.
as §1, §2

[5] = tested on: Estrogen independent (ER−) MDA MB231 cells; test: MDA MB231 cell growth (MTT assay); assay type: cell-based, human; details: 10^−6M, 7 days, MTT (FIG. 9)
Method: Estrogen independent (ER^−)MDA MB231 cells were plated at 20,000 cells/well/ml in a collagen-IV coated 24-well plate. The next day, cells were treated with vehicle (0.1% ethanol), AFPep, cyclo[EKTOVNOGN] (SEQ ID NO: 33) YI, for 7 days. Each peptide was treated at 10^−6M. Cell proliferation was determined by MTT assay. Each value is the mean±S.E. (n=4) of three independent experiments.

Row | Molecule | inhibition of E2-stimulated T47D human breast cancer cell growth, concentration response profile [3] | inhibition of E2-stimulated uterine growth, dose response profile [1] | Inhibition ± S.E, % T47D cell proliferation [4] | other results
1 | cyclo[EKTOVNOGN]FS |  |  |  | Inhibition ± S.E, % Mouse uterine growth Intraperitoneal [1]: 7 ± 3%
2 | TOVNOGNEK (T[Hyp]VN[Hyp]GNEK) | superior dose response profile | superior dose response profile |  | inhibition of MCF-7 xenograft growth (change in tumor volume) [2]: efficacy equivalent to AFPep
3 | CC[C@H](C)[C@H](NC(=O)C[C@@H]1NC(=O)CNC(=O)[C@@H]2C[C@@H](O)CN2C(=O)[C@H](CC(N)=O)NC(=O)[C@H](C(C)C)NC(=O)[C@@H]2C[C@@H](O)CN2C(=O)[C@H]([C@@H](C)O)NC(=O)[C@H](CCCCN)NC(=O)[C@H](CCC(=O)O)NC1=O)C(N)=O [cyclo[EKTOVNOGN]I] (cyclo(EKT[Hyp]VN[Hyp]GD([Ile-NH2]))) |  |  | 55 ± 6* % | 
4 | CC[C@H](C)[C@H](NC(=O)[C@H](Cc1ccc(O)cc1)NC(=O)C[C@@H]1NC(=O)CNC(=O)[C@@H]2C[C@@H](O)CN2C(=O)[C@H](CC(N)=O)NC(=O)[C@H](C(C)C)NC(=O)[C@@H]2C[C@@H](O)CN2C(=O)[C@H]([C@@H](C)O)NC(=O)[C@H](CCCCN)NC(=O)[C@H](CCC(=O)O)NC1=O)C(N)=O [cyclo[EKTOVNOGN]YI] (cyclo(EKT[Hyp]VN[Hyp]GD([Tyr-Ile-NH2]))) | ineffective | very little antiestrogenic activity | 24 ± 3% | 
5 | cyclo[EKTOVGOGN]K (EKT[Hyp]VG[Hyp]GNK; bridge (positions not given here); not fully specified (bridges); printed as cyclo[EKTOVGOGN]K; also: cyclic ring with lysine tail, ring closure and tail attachment not given here) |  |  |  | Inhibition ± S.E, % Mouse uterine growth Intraperitoneal [1]: 7 ± 3%
6 | TOVNO (T[Hyp]VN[Hyp]) | undesirable | undesirable |  | 
7 | CC[C@H](C)[C@H](NC(=O)[C@H](Cc1ccccc1)NC(=O)C[C@@H]1NC(=O)CNC(=O)[C@@H]2C[C@@H](O)CN2C(=O)[C@H](CC(N)=O)NC(=O)[C@H](C(C)C)NC(=O)[C@@H]2C[C@@H](O)CN2C(=O)[C@H]([C@@H](C)O)NC(=O)[C@H](CCCCN)NC(=O)[C@H](CCC(=O)O)NC1=O)C(N)=O [cyclo[EKTOVNOGN]FI] (cyclo(EKT[Hyp]VN[Hyp]GD([Phe-Ile-NH2]))) | inhibited E2-stimulated T47D human breast cancer cell growth in a concentration-dependent manner, even at high concentrations | significantly inhibited E2-stimulated growth in a dose-dependent manner and maintained its effectiveness at very high doses | 66 ± 2* % | inhibition of MCF-7 xenograft growth (change in tumor volume) [2]: significantly different from the E2 alone group; inhibition of MCF-7 xenograft growth (change in tumor volume) ([2]; listed as cyclo [ETKOVNOGN] FI): significantly inhibited the growth of tumor xenografts; effect on growth of ER− MDA MB 231 cells in culture [5]: no effect; efficacy in inhibition of E2-stimulated growth compared with AFPep ([1]; in vivo and in vitro, summary statements): more effective at inhibiting E2-stimulated growth than AFPep
